# Measurements as given in ChEMBL document CHEMBL3085717, “Structural and thermodynamic dissection of linear motif recognition by the E. coli sliding clamp” (J Med Chem, 2013).
# Peptide text beside a SMILES is read from it.
# Test: Displacement of 5'-fluorescein(FAM)-QLDLF-OH from Escherichia coli AN1459 DNA polymerase 3beta by fluorescence polarization assay
Molecule,IC50 [µM],Kd [µM]
CC(C)C[C@H](NC(=O)[C@H](CC(=O)O)NC(=O)[C@H](CC(C)C)NC(=O)[C@@H](N)CCC(N)=O)C(=O)N[C@@H](Cc1ccccc1)C(=O)O,63.2,29.5
CC(=O)N[C@@H](CCC(N)=O)C(=O)N[C@@H](CC(C)C)C(=O)N[C@@H](CC(=O)O)C(=O)N[C@@H](CC(C)C)C(=O)N[C@@H](Cc1ccccc1)C(=O)O,1.9,0.9
CC(C)CCC(=O)N[C@@H](Cc1ccccc1)C(=O)O,4440,
CC(=O)N[C@@H](CC(C)C)C(=O)N[C@@H](Cc1ccccc1)C(=O)O (Ac-Leu-Phe-OH),1100,
Ac-ELDLF-OH,222,104
Ac-NLDLF-OH,43.6,20.3
Ac-QADLF-OH,78.6,36.7
Ac-QLDLA-OH,555,259
Ac-QLDVF-OH,1220,567

# Now from value to molecule, other results behind:
IC50 [µM],Molecule,Kd [µM]
603,Ac-ALDLF-OH,281
976,Ac-GLDLF-OH,456
36.1,Ac-QGDLF-OH,16.8
3.4,Ac-QLALF-OH,1.6
247,Ac-QLDAF-OH,115
1520,Ac-QLDGF-OH,711
1070,Ac-QLDLG-OH,498
21,Ac-QLDLL-OH,9.8
10.4,Ac-QLGLF-OH,4.9
60.4,Ac-QVDLF-OH,28.2
